In patent US11883405B2, “Pharmaceutical composition comprising a combination of methotrexate and novobiocin, and the use of said composition in therapy” (Amplio Pharma AB, priority 2017, dated 2024):
Read-outs that look alike come from different tables or passages of the source.

How the values were obtained:
MMP1 = details: cited from earlier work; for IL-1 induced increase in MMP1 expression: Nose M. et al. (1997)
neutrophils [1] = details: 4 months after reaching a therapeutic dose of more than 20 mg/week; cited from earlier work
[2] = cited from earlier work
RA patients = details: 15 mg/wk, cited from earlier work
[3] = Pharmacokinetic cross-over study in healthy volunteers (oral / subcutaneous); assay type: in vivo, human; details: for absorption: after oral and subcutaneous administration
Procedure: Administrations are separated by a wash-out period of 7-14 days. […] Plasma samples are stored at −20° C. until analysis. The primary objective of the study is to evaluate the relative bio-availability of methotrexate following its co-administration with novobiocin. Secondary objectives of the study include the overall tolerability and safety of the co-administration of a therapeutic dose of methotrexate with a non-therapeutic dose of novobiocin for both administration routes overall and in comparison, to administration of methotrexate alone.

[4] = tested on: pristane-induced arthritis; assay: Pristane-induced arthritis (PIA) rat model; assay type: in vivo
Procedure: The animals are acclimatized for approximately one week before initiation of experiment. All rats are weighed day 0, the day of disease induction, for determination of mean weight of the rats included in the experiment. Arthritis is induced by subcutaneous (s.c.) administration of 200 μl pristane on Day 0. The rats are anesthetized by inhaling a mixture of Isoba vet (3.5%) and oxygen. The root of the tail is cleaned with 70% ethanol and the oil is injected approximately 0.5 cm from the root of the tail. A slight pressure is put on the injection site for 5 seconds after injection to prevent leakage of the oil. Test compounds are administered either i.v. or p.o. (by gavage). Disease is evaluated three times per week from disease onset using a macroscopic scoring system of the four limbs ranging from 0 to 15 (1 point for each swollen or red toe, 1 point for a swollen or red mid foot digit or knuckle, 5 points for a swollen ankle) resulting in a maximum total score of 60 for each rat. The disease scoring is done in a double-blind fashion, i.e. the scorer is unaware of the treatment received by the animal. […]

[5] = Pharmacokinetics in rats after oral (gavage) or parenteral administration
Procedure: (§9) In vivo study protocol—in accordance with local (Malmo, Sweden) animal ethic license number M388-12: Following acclimatization to the housing conditions for a minimum of 7 days after arrival, male Wistar (Hannover) rats (Taconic, Denmark), average weight 300 g; average age 8-10 weeks, are treated with test items (see table 1); 12-16 h prior to dosing all food except for an amount equivalent to a half day consumption is removed. The test items are administrated using a soft gavage tube (p.o.) or by injecting the test item in the tail vein (i.v). The volume given is 5 mL/kg (p.o.) or 1 mL/kg (i.v.). Before i.v administration rats are anesthetized using isoflurane. The rats are conscious during sample collection and the blood is taken from the sub-lingual vein. Blood samples are collected from each rat over a period of up to 24 h. At each time point two aliquots of 50 μL each is added to a vial containing 150 μL of sterile water. The samples are mixed immediately and stored at −18° C. until preparation for bioanalysis is commenced. All formulations are prepared on the same day that dosing takes place. The body weight of the rat is recorded before dosing. The weight of the syringe is recorded before and after administration to allow calculation of the actual amount of test sample delivered. The actual doses are used during the evaluation of the data.
(§10) Samples and standards are injected by a HTC PAL from CTC analytics into an LC system from Shimadzu consisting of a high-pressure gradient system of two LC-10 AD pumps controlled by a SCL-10A controller from Shimadzu. The samples are separated using reverse-phase chromatography with gradient elution at a flow rate of 0.8 mL/min. Mobile phases are A:94.9/5/0.1 water/acetonitrile/formic acid and B:5/94.9/0.1 water/acetonitrile/formic acid. Gradient starts at 0% B and increases linearly to 100% B in 4 minutes, 100% B is kept for 0.5 minutes and then the system returns to 0% B in 0.1 minutes. The system is equilibrated for 1.4 minutes until the total run time of 6 minutes. The eluent is analysed by a Quattro Ultima from Micromass equipped with an electrospray ion source. Data are collected, and calibrations are calculated by MassLynx 4.0 software. […] The eluent is ionized by negative ion electrospray.
(§11) The diluted blood sample (50 μL blood, 150 μL water) is thawed and mixed with 400 μL of acetonitrile, to precipitate the protein. The sample is centrifuged at 5000 g for 5 minutes and 100 μL of the supernatant is transferred to a 300 μL glass vial and 100 μL of water is added to reduce the acetonitrile concentration.
(§12) The concentration of the standard curve is in the range from 5 nM to 15625 nM. Samples with analyte concentrations above the upper limit of quantification are diluted with matrix to reach within the assay range. A non-compartmental analysis (NCA) is performed using the Phoenix WinNonLin analysis tool.

[6] = therapeutically effective treatment dose level; cited from earlier work
MMP3 = details: cited from earlier work
[7] = cited from earlier work; remark: listed apart in the source
[8] = rodents; cited from earlier work
MMP1 (collagenase) = assay: IL-1 induced mRNA upregulation of MMP1 in primary chondrocyte culture; assay type: cell-based, calf; details: concentrations <100 uM
Procedure: (§1) Primary chondrocyte culture was freshly isolated from calf cartilage. The cells were plated (at 2.5×10^6 per mL) in 100×20 mm culture dishes and incubated in Ham's F12 medium containing 5% fetal bovine serum (FBS) overnight at 37° C. The cells were starved with serum-free medium overnight. The cells were pretreated with MTX, NOV or a combination of MTX with 1, 2, 10 or 20 eq of NOV for 6 hours. Then IL-1 (20 ng/mL) was added to each plate and the plates were incubated for an additional 18 h.
(§2) Total RNA was isolated by the acidified guanidine isothiocyanate method and subjected to electrophoresis on a denatured gel. Denatured RNA samples were analyzed by gel electrophoresis in a 1% denaturing gel, transferred to a nylon membrane and hybridized respectively with the ^32P-cDNA probes for MMP1, MMP3 and proteoglycan and analyzed.

neutrophils [9] = assay: Induction of neutrophil apoptosis (in vitro/ex vivo model of arthritis); assay type: cell-based, rat
Excerpt: (§3) Apoptosis, in contrast to necrosis, is the demise of a cell through a series of controlled sequential events, resulting in an increase of anti-inflammatory mediators instead of invoking an inflammatory response, because the contents of the cell are removed by phagocytosis and not released to the direct environment. Apoptosis involves the activation of caspases, including caspase 3. Aberration in expression and/or function of the regulators of cell death through apoptosis is thought to result in pathological conditions, including autoimmune diseases and cancer. Although apoptotic cells are uncommonly observed in vivo in RA tissues, in vitro inflammatory cells from RA tissues, like synoviocytes, T-cells and macrophages, are highly susceptible to apoptosis induced through the FAS-TNF-receptor pathway. The absence of apoptotic cells in vivo may be explained by the high levels of nitric oxide in RA tissues, which inhibits caspase 3 and thus cell apoptosis.
(§4) Novobiocin is a topoisomerase II inhibitor and at therapeutically relevant concentration levels, is expected to counteract CPPD-triggered prolonged survival of neutrophils. Such a pharmacodynamic effect of Novobiocin may be quantified either through activity (levels) of caspase 3, an apoptotic cleavage enzyme, or cytoplasmic histone-associated-DNA fragmentation assessment, using commercially available kits.
(§5) In the latter model, the effect on neutrophil apoptosis can be either studied directly, or indirectly, exposing the cells in vitro to a challenge that prolongs their survival (e.g. CPPD crystals).
(§6) CPPD (Ca2P2O7.2H2O; triclinic form) crystals can be obtained using well described methods (Burt H M et al. 1989; Gras P. et al. 2013). Plasma protein coating of the crystals is achieved through incubation of the crystals in 50% plasma (Tudan C et al. 2003). The CPPD crystals are used in experiments with neutrophils from healthy control individuals/animals to mimic arthritic disease.
(§7) Neutrophils are separated from fresh human (healthy control/patient) or rat (healthy control; disease model) blood using standard methods and suspended in buffer at a concentration of 1×10^6 cells/ml. The cells are incubated at 37° C. with occasional tumbling.
(§8) Stock solutions of TNFalpha, Methotrexate and Novobiocin are prepared in DMSO, keeping the DMSO concentrations in the cell suspensions below 0.1% during the experiment. The apoptosis rate following the administration of vehicle without active agent (negative control) represents the baseline rate of apoptosis (no effect level), while the apoptosis rate following the administration of TNFalpha (positive control) represents the maximum rate of apoptosis (100% effect level).

[10] = adults; cited from earlier work
[11] = rat, in vivo
Procedure: as §9, §10, §11, §12

MMP3 (stromelysin1) = assay: IL-1 induced mRNA upregulation of MMP3 in primary chondrocyte culture; assay type: cell-based; details: calf chondrocytes, IL-1 20 ng/mL; concentrations <100 uM
Procedure: as §1, §2

neutrophils [12] = assay: Induction of neutrophil apoptosis (in vitro/ex vivo model of arthritis); assay type: cell-based, human
Excerpt: as §3, §4, §5, §6, §7, §8

plasma albumin = molecular target: T1, plasma albumin (Homo sapiens, UniProt P02768); details: in men; cited from earlier work
T1 construct: host or cells: human plasma
T1 sequence (P02768 25-609): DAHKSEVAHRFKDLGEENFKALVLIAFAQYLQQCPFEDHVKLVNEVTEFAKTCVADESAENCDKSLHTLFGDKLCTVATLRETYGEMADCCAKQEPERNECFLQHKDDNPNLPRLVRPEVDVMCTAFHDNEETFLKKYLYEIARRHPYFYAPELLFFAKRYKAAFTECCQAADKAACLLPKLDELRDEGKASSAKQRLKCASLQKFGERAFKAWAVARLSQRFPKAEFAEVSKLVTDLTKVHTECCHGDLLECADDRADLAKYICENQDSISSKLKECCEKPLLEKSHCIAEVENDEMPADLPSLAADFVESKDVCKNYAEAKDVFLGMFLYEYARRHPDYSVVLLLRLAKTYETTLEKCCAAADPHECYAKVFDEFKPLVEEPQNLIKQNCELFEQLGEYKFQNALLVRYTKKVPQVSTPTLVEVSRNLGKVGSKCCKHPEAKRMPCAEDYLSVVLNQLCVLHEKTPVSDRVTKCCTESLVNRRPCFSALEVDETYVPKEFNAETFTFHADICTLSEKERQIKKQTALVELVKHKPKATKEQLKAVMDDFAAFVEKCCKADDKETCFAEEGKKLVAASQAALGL

[13] = male, Wistar (Hannover), rat, whole blood, po, 2 mg/kg
[14] = at 1×10^−7 M, Jackson J K et al. (2008)
[15] = neutrophils from healthy rat, concentrations <60 uM
[16] = male, Wistar (Hannover), rat, whole blood, ip, 5.5 mg/kg
[17] = male, Wistar (Hannover), rat, whole blood, po, 55 mg/kg
[18] = neutrophils from healthy subjects, concentrations <60 uM

## CN(Cc1cnc2nc(N)nc(N)c2n1)c1ccc(C(=O)N[C@@H](CCC(=O)O)C(=O)O)cc1 [methotrexate, N-[4-[[(2,4-diamino-6-pteridinyl)methyl]methylamino]benzoyl]-L-glutamic acid]
MMP1
  IL-1 induced increase in MMP1 expression: suppressed
Neutrophils [1]
  neutrophil apoptosis in RA patients: restoration of neutrophil apoptosis to healthy control levels
[2]; in vivo
  time within which non-polyglutamated methotrexate is excreted in the urine after administration: ≤ 12 h
[2]; man, oral dose
  systemic bioavailability: approximately 73%
[2]; subcutaneous (sc) administration
  bioavailability: approx. 95%
RA patients; oral application route
  treatment success, RA patients: 24%
RA patients; sc application route
  treatment success, RA patients: 34%
[3]; 15 mg methotrexate alone
  maximum concentrations and total plasma concentrations, sub cutaneous versus oral administration: higher
[3]; healthy volunteers
  absorption: rapidly absorbed
  time to maximum plasma concentrations, sub cutaneous route versus oral route: reached faster
[4]; 0.1 mg/kg every third day from day 7 (i.v.)
  inflammatory effects of pristane: completely ameliorated
[5]; [13]
  AUC(0-inf): 0.923 µM·h
  AUC(0-t): 0.759 µM·h
  Cmax: 277 nM
[6]
  patient population in which treatment needs to be terminated due to intolerability: about 30%

## O=C(O)c1cc(/N=N/c2ccc(S(=O)(=O)Nc3ccccn3)cc2)ccc1O [Sulfasalazin]
MMP1
  IL-1 induced increase in MMP1 expression: suppressed
MMP3; Nose M. et al. (1997)
  IL-1 induced increase in MMP3 expression: suppressed

## CC[C@@]1(O)C(=O)OCc2c1cc1n(c2=O)Cc2cc3ccccc3nc2-1 [Camptothecin]
MMP1; [14]
  IL-1 induced increase in MMP1 mRNA expression: almost completely inhibited
MMP3; [14]
  IL-1 induced increase in MMP3 mRNA expression: almost completely inhibited

## CO[C@@H]1[C@@H](OC(N)=O)[C@@H](O)[C@H](Oc2ccc3c(O)c(NC(=O)c4ccc(O)c(CC=C(C)C)c4)c(=O)oc3c2C)OC1(C)C [novobiocin, 4-hydroxy-3-[4-hydroxy-3-(3-mehtylbut-2-enyl)benzamido]-8-methylcoumarin-7-yl 3-O-carbamoyl-5,5-di-C-methyl-alpha-L-lyxofuranoside]
[7]; Wright W. W. et al., 1956
  dose excreted unaltered in the urine: About 3%
[7]; hepatic/biliary excretion
  oral dose excreted in the faeces: about 30%
[8]
  oral availability: about 30%
MMP1 (collagenase); calf chondrocytes, IL-1 20 ng/mL
  pharmacodynamic effects on the IL-1 induced mRNA upregulation of MMP1: No pharmacodynamic effects
MMP1 (collagenase); novobiocin added to MTX
  additional pharmacodynamic effects on the inhibition of the IL-1 induced mRNA upregulation of MMP1 by MTX: No additional pharmacodynamic effects
Neutrophils [9]; neutrophils from disease model animals (PIA rat), concentrations <60 uM
  pharmacodynamic effects on neutrophil apoptosis: No pharmacodynamic effects
Neutrophils [9]; neutrophils from healthy controls (rat), control = base line, TNFalpha is 100% effect, concentrations <50 uM
  effect of NOV on CPPD-induced prolonged survival: No pharmacodynamic effects
Neutrophils [9]; [15]
  pharmacodynamic effects on CPPD-induced prolonged survival: No pharmacodynamic effects
  pharmacodynamic effects on neutrophil apoptosis: No pharmacodynamic effects
[10]
  maximum tolerated dose (MTD): 4 g/day
[3]; healthy volunteers
  absorption: rapidly absorbed
  plasma levels versus levels at which any pharmacodynamic effects can be observed in non-clinical models of disease: remain well below
  time to maximum plasma concentrations, sub cutaneous route versus oral route: reached faster
[4]; daily per oral administration of up to 80 mg/kg from day 11 to 21 (after onset of disease)
  therapeutic effect on the pristane-induced arthritis: no therapeutic effect
[11]
  linearity of pharmacokinetics: linear
[5]; [16]
  AUC(0-inf): 25.5 µg·h/mL
  Cmax: 9600 ng/mL
  Tmax: 0.9 h
[5]; [17]
  AUC(0-inf): 110 µg·h/mL
  AUC(0-t): 110 µg·h/mL
  Cmax: 23300 ng/mL
  Tmax: 1.8 h
[5]; oral administration (gavage; 55 mg/kg)
  Cmax: 23300 ng/mL
MMP3 (stromelysin1)
  pharmacodynamic effects on the IL-1 induced mRNA upregulation of MMP3: No pharmacodynamic effects
Neutrophils [12]; neutrophils from healthy controls (human), control = base line, TNFalpha is 100% effect, concentrations <50 uM
  effect of NOV on CPPD-induced prolonged survival: No pharmacodynamic effects
Neutrophils [12]; [18]
  pharmacodynamic effects on CPPD-induced prolonged survival: No pharmacodynamic effects
  pharmacodynamic effects on neutrophil apoptosis: No pharmacodynamic effects
Neutrophils [12]; neutrophils from patients with rheumatoid arthritis, concentrations <60 uM
  pharmacodynamic effects on neutrophil apoptosis: No pharmacodynamic effects
Plasma albumin
  bound to plasma albumin: 99.2%
